Reference: patent publication US9371320B2, “Heterocyclic compound” (TAKEDA PHARMACEUTICAL COMPANY LIMITED, priority 2012, dated 2016)

Legend:
[1] = target: T1, Tyk2 (Homo sapiens, UniProt P29597); assay: Tyk2 enzyme inhibition test (LANCE method); type: biochemical; settings: for inhibition at 1 µM: test compound 1 μM, read-out: Inhibitory rate (%) Tyk2 1 μM; for inhibition at 10 µM: test compound 10 μM, read-out: Inhibitory rate (%) Tyk2 10 μM
T1 construct: purchased Invitrogen
Procedure, shortened: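 Recombinant Tyk2 (375 ng/mL stock) with ULight-JAK1 peptide (300 nM stock) and ATP (30 μM stock) in HEPES pH 7.5/MgCl2/EGTA/DTT buffer, 1 h at room temperature. Stopped with EDTA plus Eu-anti-phosphotyrosine antibody; TR-FRET read at 665 nm after 1 h. No-enzyme wells define 100% inhibition.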

[2] = target: T2, JAK1 (Homo sapiens, UniProt P23458); assay: JAK1 enzyme inhibition test (LANCE method); type: biochemical; settings: for inhibition at 1 µM: test compound 1 μM, read-out: Inhibitory rate (%) JAK1 1 μM; for inhibition at 10 µM: test compound 10 μM, read-out: Inhibitory rate (%) JAK1 10 μM
T2 construct: purchased Invitrogen
T2 sequence (P23458 whole entry): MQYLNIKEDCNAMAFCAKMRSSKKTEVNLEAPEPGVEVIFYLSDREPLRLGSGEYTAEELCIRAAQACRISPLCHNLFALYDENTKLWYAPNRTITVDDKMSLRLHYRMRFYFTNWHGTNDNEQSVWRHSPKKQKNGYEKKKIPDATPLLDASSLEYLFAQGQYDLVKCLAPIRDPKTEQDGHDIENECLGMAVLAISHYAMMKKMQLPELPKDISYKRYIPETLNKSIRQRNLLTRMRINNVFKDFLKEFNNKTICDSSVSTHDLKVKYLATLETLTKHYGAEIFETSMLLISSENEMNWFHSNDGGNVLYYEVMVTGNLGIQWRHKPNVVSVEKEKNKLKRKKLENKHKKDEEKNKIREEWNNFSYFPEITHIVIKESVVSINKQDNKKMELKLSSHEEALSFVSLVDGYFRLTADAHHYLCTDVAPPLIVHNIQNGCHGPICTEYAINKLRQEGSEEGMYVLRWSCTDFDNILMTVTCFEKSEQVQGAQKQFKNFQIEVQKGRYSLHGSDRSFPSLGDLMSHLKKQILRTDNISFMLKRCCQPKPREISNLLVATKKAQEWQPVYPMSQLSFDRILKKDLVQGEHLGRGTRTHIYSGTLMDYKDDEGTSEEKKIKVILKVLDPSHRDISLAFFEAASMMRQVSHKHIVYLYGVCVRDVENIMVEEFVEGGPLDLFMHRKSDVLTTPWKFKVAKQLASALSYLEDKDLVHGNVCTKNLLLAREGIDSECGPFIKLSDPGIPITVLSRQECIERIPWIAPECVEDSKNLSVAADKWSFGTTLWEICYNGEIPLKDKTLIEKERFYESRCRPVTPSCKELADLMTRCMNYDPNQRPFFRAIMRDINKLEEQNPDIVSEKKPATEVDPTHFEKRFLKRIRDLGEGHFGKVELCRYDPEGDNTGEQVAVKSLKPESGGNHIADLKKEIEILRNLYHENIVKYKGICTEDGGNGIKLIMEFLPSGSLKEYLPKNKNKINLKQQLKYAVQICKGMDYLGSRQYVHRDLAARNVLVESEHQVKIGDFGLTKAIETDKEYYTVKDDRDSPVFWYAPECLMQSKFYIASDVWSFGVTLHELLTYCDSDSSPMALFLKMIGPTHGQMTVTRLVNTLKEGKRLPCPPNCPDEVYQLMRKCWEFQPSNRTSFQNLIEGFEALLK
Procedure, shortened: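 TR-FRET (LANCE) kinase assay using JAK1 at 187.5 ng/mL, ULight-JAK1 peptide at 300 nM and ATP at 150 μM, given as solution concentrations before mixing. Buffer was 50 mM HEPES pH 7.5 with 10 mM MgCl2 and 2 mM DTT, and the reaction ran 1 h at room temperature. Eu anti-phosphotyrosine signal at 665 nm was expressed relative to a no-enzyme well, taken as 100% inhibition.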

T1 sequence (P29597 whole entry): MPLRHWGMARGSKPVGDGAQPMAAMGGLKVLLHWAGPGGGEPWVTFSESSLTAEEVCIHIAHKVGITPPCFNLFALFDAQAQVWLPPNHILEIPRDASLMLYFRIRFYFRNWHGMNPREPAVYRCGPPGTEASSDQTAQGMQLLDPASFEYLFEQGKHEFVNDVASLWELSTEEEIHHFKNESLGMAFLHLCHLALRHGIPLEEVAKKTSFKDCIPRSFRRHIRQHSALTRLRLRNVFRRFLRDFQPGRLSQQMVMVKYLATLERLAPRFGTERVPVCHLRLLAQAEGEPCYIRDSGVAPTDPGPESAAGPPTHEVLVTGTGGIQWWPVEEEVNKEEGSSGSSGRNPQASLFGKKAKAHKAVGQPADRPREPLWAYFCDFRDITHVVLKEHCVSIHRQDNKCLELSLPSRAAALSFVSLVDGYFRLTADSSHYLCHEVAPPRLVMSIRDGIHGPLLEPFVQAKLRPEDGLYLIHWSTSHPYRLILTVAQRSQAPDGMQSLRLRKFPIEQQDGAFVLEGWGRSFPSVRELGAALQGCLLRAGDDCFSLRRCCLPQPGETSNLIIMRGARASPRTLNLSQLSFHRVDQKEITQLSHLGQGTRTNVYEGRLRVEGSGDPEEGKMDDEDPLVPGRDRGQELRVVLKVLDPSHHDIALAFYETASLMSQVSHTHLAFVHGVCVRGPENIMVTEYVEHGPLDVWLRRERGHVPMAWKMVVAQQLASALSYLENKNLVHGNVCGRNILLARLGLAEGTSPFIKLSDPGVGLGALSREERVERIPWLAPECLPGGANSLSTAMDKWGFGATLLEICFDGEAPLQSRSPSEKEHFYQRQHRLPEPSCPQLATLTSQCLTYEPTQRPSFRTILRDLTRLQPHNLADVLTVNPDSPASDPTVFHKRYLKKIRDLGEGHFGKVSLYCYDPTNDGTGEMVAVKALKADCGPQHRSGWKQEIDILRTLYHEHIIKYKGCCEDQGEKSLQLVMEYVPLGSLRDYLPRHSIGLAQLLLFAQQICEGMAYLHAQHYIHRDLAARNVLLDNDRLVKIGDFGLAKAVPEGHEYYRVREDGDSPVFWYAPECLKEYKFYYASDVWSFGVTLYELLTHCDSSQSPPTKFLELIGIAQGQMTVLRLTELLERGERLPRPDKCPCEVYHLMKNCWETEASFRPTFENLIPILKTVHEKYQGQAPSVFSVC

| Structure (SMILES) | inhibition at 1 µM [1] [%] | inhibition at 1 µM [2] [%] | inhibition at 10 µM [1] [%] | inhibition at 10 µM [2] [%] |
| --- | --- | --- | --- | --- |
| O=c1[nH]ccc2c1c(-c1cccc(CN3CCC(F)(F)C3)c1)nn2-c1c(F)cccc1F [Example 261, 1-(2,6-difluorophenyl)-3-(3-((3,3-difluoropyrrolidin-1-yl)methyl)phenyl)-1,5-dihydro-4H-pyrazolo[4,3-c]pyridin-4-one] | 94 | 41 | – | – |
| CC[C@@H](COC)n1nc(-c2csc(C(N)=O)c2)c2c(=O)[nH]ccc21 [Example 262, 4-(1-((2S)-1-methoxybutan-2-yl)-4-oxo-4,5-dihydro-1H-pyrazolo[4,3-c]pyridin-3-yl)thiophene-2-carboxamide] | 92 | 97 | – | – |
| CC[C@H](COC)n1nc(-c2csc(C(N)=O)c2)c2c(=O)[nH]ccc21 [Example 263, 4-(1-((2R)-1-methoxybutan-2-yl)-4-oxo-4,5-dihydro-1H-pyrazolo[4,3-c]pyridin-3-yl)thiophene-2-carboxamide] | 90 | 97 | – | – |
| CC(C)(C)n1nc(N)c2c(=O)[nH]ccc21 [Example 264, 3-amino-1-tert-butyl-1,5-dihydro-4H-pyrazolo[4,3-c]pyridin-4-one] | – | – | 12 | 44 |
| CC(C)(C)n1nc(NC(=O)c2ccccc2)c2c(=O)[nH]ccc21 [Example 265, N-(1-tert-butyl-4-oxo-4,5-dihydro-1H-pyrazolo[4,3-c]pyridin-3-yl)benzamide] | – | – | 24 | 21 |
| O=c1[nH]ccc2c1c(-c1ccc(N3CCOCC3)cc1)nn2C1CCC(F)(F)CC1 [Example 266, 1-(4,4-difluorocyclohexyl)-3-(4-(morpholin-4-yl)phenyl)-1,5-dihydro-4H-pyrazolo[4,3-c]pyridin-4-one] | 91 | 85 | – | – |
| NC(=O)c1ccc(F)c(-c2nn(-c3c(F)cccc3F)c3cc[nH]c(=O)c23)c1 [Example 267, 3-(1-(2,6-difluorophenyl)-4-oxo-4,5-dihydro-1H-pyrazolo[4,3-c]pyridin-3-yl)-4-fluorobenzamide] | – | – | 31 | 17 |
| NC(=O)c1cc(F)cc(-c2nn(-c3c(F)cccc3F)c3cc[nH]c(=O)c23)c1 [Example 268, 3-(1-(2,6-difluorophenyl)-4-oxo-4,5-dihydro-1H-pyrazolo[4,3-c]pyridin-3-yl)-5-fluorobenzamide] | 33 | 4 | – | – |
| NC(=O)c1ccc(F)c(-c2nn(-c3c(F)cccc3F)c3c(Cl)c[nH]c(=O)c23)c1 [Example 269, 3-(7-chloro-1-(2,6-difluorophenyl)-4-oxo-4,5-dihydro-1H-pyrazolo[4,3-c]pyridin-3-yl)-4-fluorobenzamide] | – | – | 29 | 24 |
| NC(=O)c1cc(F)cc(-c2nn(-c3c(F)cccc3F)c3c(Cl)c[nH]c(=O)c23)c1 [Example 270, 3-(7-chloro-1-(2,6-difluorophenyl)-4-oxo-4,5-dihydro-1H-pyrazolo[4,3-c]pyridin-3-yl)-5-fluorobenzamide] | 69 | 0 | – | – |
| CNC(=O)c1ccc(F)c(-c2nn(-c3c(F)cccc3F)c3c(Cl)c[nH]c(=O)c23)c1 [Example 271, 3-(7-chloro-1-(2,6-difluorophenyl)-4-oxo-4,5-dihydro-1H-pyrazolo[4,3-c]pyridin-3-yl)-4-fluoro-N-methylbenzamide] | – | – | 26 | -1 |
| CNC(=O)c1ccc(F)c(-c2nn(-c3c(F)cccc3F)c3cc[nH]c(=O)c23)c1 [Example 272, 3-(1-(2,6-difluorophenyl)-4-oxo-4,5-dihydro-1H-pyrazolo[4,3-c]pyridin-3-yl)-4-fluoro-N-methylbenzamide] | – | – | 25 | 12 |
| CNC(=O)c1cc(F)cc(-c2nn(-c3c(F)cccc3F)c3c(Cl)c[nH]c(=O)c23)c1 [Example 273, 3-(7-chloro-1-(2,6-difluorophenyl)-4-oxo-4,5-dihydro-1H-pyrazolo[4,3-c]pyridin-3-yl)-5-fluoro-N-methylbenzamide] | 71 | 1 | – | – |
| CNC(=O)c1cc(F)cc(-c2nn(-c3c(F)cccc3F)c3cc[nH]c(=O)c23)c1 [Example 274, 3-(1-(2,6-difluorophenyl)-4-oxo-4,5-dihydro-1H-pyrazolo[4,3-c]pyridin-3-yl)-5-fluoro-N-methylbenzamide] | 77 | 34 | – | – |
| O=C1CCCN1Cc1ccc(-c2nn(-c3c(F)cccc3F)c3cc[nH]c(=O)c23)cc1 [Example 275, 1-(2,6-difluorophenyl)-3-(4-((2-oxopyrrolidin-1-yl)methyl)phenyl)-1,5-dihydro-4H-pyrazolo[4,3-c]pyridin-4-one] | 98 | 96 | – | – |
| O=C1NCCN1c1ccc(-c2nn(-c3c(F)cccc3F)c3cc[nH]c(=O)c23)cc1 [Example 276, 1-(2,6-difluorophenyl)-3-(4-(2-oxoimidazolidin-1-yl)phenyl)-1,5-dihydro-4H-pyrazolo[4,3-c]pyridin-4-one] | 99 | 91 | – | – |
| CC(=O)Nc1ccc(-c2nn(-c3c(F)cccc3F)c3cc[nH]c(=O)c23)cc1 [Example 277, N-(4-(1-(2,6-difluorophenyl)-4-oxo-4,5-dihydro-1H-pyrazolo[4,3-c]pyridin-3-yl)phenyl)acetamide] | 99 | 95 | – | – |
| O=c1[nH]ccc2c1c(-c1cccc(CO)c1)nn2-c1c(F)cccc1F [Example 278, 1-(2,6-difluorophenyl)-3-(3-(hydroxymethyl)phenyl)-1,5-dihydro-4H-pyrazolo[4,3-c]pyridin-4-one-] | 98 | 92 | – | – |
| CC(=O)N1CCN(c2ccc(-c3nn(-c4c(F)cccc4F)c4cc[nH]c(=O)c34)cc2)CC1 [Example 279, 3-(4-(4-acetylpiperazin-1-yl)phenyl)-1-(2,6-difluorophenyl)-1,5-dihydro-4H-pyrazolo[4,3-c]pyridin-4-one] | 99 | 96 | – | – |
| NC(=O)c1cc(-c2nn(C3CCCC3)c3c(Br)c[nH]c(=O)c23)cs1 [Example 280, 4-(7-bromo-1-cyclopentyl-4-oxo-4,5-dihydro-1H-pyrazolo[4,3-c]pyridin-3-yl)thiophene-2-carboxamide] | 97 | 94 | – | – |
| Cc1c[nH]c(=O)c2c(-c3csc(C(N)=O)c3)nn(C3CCCC3)c12 [Example 281, 4-(1-cyclopentyl-7-methyl-4-oxo-4,5-dihydro-1H-pyrazolo[4,3-c]pyridin-3-yl)thiophene-2-carboxamide] | 96 | 96 | – | – |
| NC(=O)c1cc(-c2nn(C3CCCC3)c3c(C4CC4)c[nH]c(=O)c23)cs1 [Example 282, 4-(1-cyclopentyl-7-cyclopropyl-4-oxo-4,5-dihydro-1H-pyrazolo[4,3-c]pyridin-3-yl)thiophene-2-carboxamide] | 85 | 76 | – | – |
| O=c1[nH]ccc2c1c(Nc1ccccc1)nn2C1CCCC1 [Example 283, 3-anilino-1-cyclopentyl-1,5-dihydro-4H-pyrazolo[4,3-c]pyridin-4-one] | 93 | 98 | – | – |
| NS(=O)(=O)c1cccc(Nc2nn(C3CCCC3)c3cc[nH]c(=O)c23)c1 [Example 284, 3-((1-cyclopentyl-4-oxo-4,5-dihydro-1H-pyrazolo[4,3-c]pyridin-3-yl)amino)benzenesulfonamide] | 96 | 99 | – | – |
| NS(=O)(=O)c1cccc(Nc2nn(C3CCCC3)c3c(Br)c[nH]c(=O)c23)c1 [Example 285, 3-((7-bromo-1-cyclopentyl-4-oxo-4,5-dihydro-1H-pyrazolo[4,3-c]pyridin-3-yl)amino)benzenesulfonamide] | 82 | 70 | – | – |
| CN(C)C(=O)c1cc(-c2nn(C3CCCC3)c3cc[nH]c(=O)c23)cs1 [Example 286, 4-(1-cyclopentyl-4-oxo-4,5-dihydro-1H-pyrazolo[4,3-c]pyridin-3-yl)-N,N-dimethylthiophene-2-carboxamide] | 97 | 98 | – | – |
| O=c1[nH]ccc2c1c(-c1cccc(CN3CCCC3)c1)nn2-c1c(F)cccc1F [Example 288, 1-(2,6-difluorophenyl)-3-(3-(pyrrolidin-1-ylmethyl)phenyl)-1,5-dihydro-4H-pyrazolo[4,3-c]pyridin-4-one] | 94 | 55 | – | – |
| CN(C)NC(=O)c1ccc(-c2nn(-c3c(F)cccc3F)c3cc[nH]c(=O)c23)cc1 [Example 289, 4-(1-(2,6-difluorophenyl)-4-oxo-4,5-dihydro-1H-pyrazolo[4,3-c]pyridin-3-yl)-N′,N′-dimethylbenzhydrazide] | 99 | 92 | – | – |
| NS(=O)(=O)c1ccc(-c2nn(C3CCC(F)(F)CC3)c3cc[nH]c(=O)c23)cc1 [Example 290, 4-(1-(4,4-difluorocyclohexyl)-4-oxo-4,5-dihydro-1H-pyrazolo[4,3-c]pyridin-3-yl)benzenesulfonamide] | 95 | 98 | – | – |
| O=C1CCCN1c1ccc(-c2nn(-c3c(F)cccc3F)c3cc[nH]c(=O)c23)cc1 [Example 292, 1-(2,6-difluorophenyl)-3-(4-(2-oxopyrrolidin-1-yl)phenyl)-1,5-dihydro-4H-pyrazolo[4,3-c]pyridin-4-one] | 99 | 97 | – | – |
